The supplement of paper PMC10307832

Columns and labels:
Test in all cases: relative viability (nuclei count vs DMSO), 5 days (fraction); higher = more cells survive
[1] = compound: CN(C)CC1=CC(=CC=C1)N=C(C2=CC=CC=C2)C3=C(NC4=C3C=CC(=C4)C(=O)N(C)C)O + CC1(C)CCC(c2ccc(Cl)cc2)=C(CN2CCN(c3ccc(C(=O)NS(=O)(=O)c4ccc(N[C@H](CCN5CCOCC5)CSc5ccccc5)c(S(=O)(=O)C(F)(F)F)c4)cc3)CC2)C1 [Navitoclax] (partner 0.5 µM)
Method in brief: (§1)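 Dosing by pin tool came one day after lung cancer cell lines were seeded in 1536-well plates, using either one drug or a fixed anchor-drug dose plus five library-drug doses (not always all listed) in √10 steps. After 5 days, nuclei were counted on 4× images. Relative viability is treated-well nuclei count divided by vehicle-well nuclei count, and values are medians of duplicate plates.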

[2] = compound: CN(C)CC1=CC(=CC=C1)N=C(C2=CC=CC=C2)C3=C(NC4=C3C=CC(=C4)C(=O)N(C)C)O + O=C(CCCCCCC(=O)Nc1ccccc1)NO [Vorinostat] (partner 1 µM)
Method in brief: as §1

[3] = compound: CN(C)CC1=CC(=CC=C1)N=C(C2=CC=CC=C2)C3=C(NC4=C3C=CC(=C4)C(=O)N(C)C)O + Cc1nc(Nc2ncc(C(=O)Nc3c(C)cccc3Cl)s2)cc(N2CCN(CCO)CC2)n1 [Dasatinib] (partner 0.075 µM)
Method in brief: as §1

[4] = compound: CN(C)CC1=CC(=CC=C1)N=C(C2=CC=CC=C2)C3=C(NC4=C3C=CC(=C4)C(=O)N(C)C)O + C[C@@H](Oc1cc(-c2cnn(C3CCNCC3)c2)cnc1N)c1c(Cl)ccc(F)c1Cl [Crizotinib] (partner 1 µM)
Method in brief: as §1

Cell Line: HCC-15
- relative viability ([1]; first compound 0.08 µM): 0.708
- relative viability ([1]; first compound 0.253 µM): 0.705
- relative viability ([1]; first compound 0.8 µM): 0.726
- relative viability ([1]; first compound 2.53 µM): 0.731
- relative viability ([1]; first compound 8 µM): 0.667
- relative viability ([2]; first compound 0.08 µM): 0.875
- relative viability ([2]; first compound 0.253 µM): 0.821
- relative viability ([2]; first compound 0.8 µM): 0.787
- relative viability ([2]; first compound 2.53 µM): 0.868
- relative viability ([2]; first compound 8 µM): 0.89
- relative viability ([3]; first compound 0.08 µM): 0.613
- relative viability ([3]; first compound 0.253 µM): 0.602
- relative viability ([3]; first compound 0.8 µM): 0.652
- relative viability ([3]; first compound 2.53 µM): 0.643
- relative viability ([3]; first compound 8 µM): 0.662
- relative viability ([4]; first compound 0.08 µM): 0.778
- relative viability ([4]; first compound 0.253 µM): 0.832
- relative viability ([4]; first compound 0.8 µM): 0.882
- relative viability ([4]; first compound 2.53 µM): 0.889
- relative viability ([4]; first compound 8 µM): 0.888

Cell Line: NCI-H460
- relative viability ([1]; first compound 0.08 µM): 1.05
- relative viability ([1]; first compound 0.253 µM): 1.13
- relative viability ([1]; first compound 0.8 µM): 1.07
- relative viability ([1]; first compound 2.53 µM): 1.05
- relative viability ([1]; first compound 8 µM): 1.05
- relative viability ([2]; first compound 0.08 µM): 0.722
- relative viability ([2]; first compound 0.253 µM): 0.702
- relative viability ([2]; first compound 0.8 µM): 0.716
- relative viability ([2]; first compound 2.53 µM): 0.704
- relative viability ([2]; first compound 8 µM): 0.728
- relative viability ([3]; first compound 0.08 µM): 0.669
- relative viability ([3]; first compound 0.253 µM): 0.558
- relative viability ([3]; first compound 0.8 µM): 0.736
- relative viability ([3]; first compound 2.53 µM): 0.387
- relative viability ([3]; first compound 8 µM): 0.398
- relative viability ([4]; first compound 0.08 µM): 0.824
- relative viability ([4]; first compound 0.253 µM): 0.811
- relative viability ([4]; first compound 0.8 µM): 0.998
- relative viability ([4]; first compound 2.53 µM): 0.819
- relative viability ([4]; first compound 8 µM): 0.733

Cell Line: NCI-H3122
- relative viability ([1]; first compound 0.08 µM): 1.01
- relative viability ([1]; first compound 0.253 µM): 1.01
- relative viability ([1]; first compound 0.8 µM): 1.06
- relative viability ([1]; first compound 2.53 µM): 1.03
- relative viability ([1]; first compound 8 µM): 1.04
- relative viability ([2]; first compound 0.08 µM): 0.966
- relative viability ([2]; first compound 0.253 µM): 0.947
- relative viability ([2]; first compound 0.8 µM): 1.17
- relative viability ([2]; first compound 2.53 µM): 0.905
- relative viability ([2]; first compound 8 µM): 0.898
- relative viability ([3]; first compound 0.08 µM): 0.686
- relative viability ([3]; first compound 0.253 µM): 0.867
- relative viability ([3]; first compound 0.8 µM): 0.846
- relative viability ([3]; first compound 2.53 µM): 0.844
- relative viability ([3]; first compound 8 µM): 0.951
- relative viability ([4]; first compound 0.08 µM): 0.281
- relative viability ([4]; first compound 0.253 µM): 0.286
- relative viability ([4]; first compound 0.8 µM): 0.246
- relative viability ([4]; first compound 2.53 µM): 0.318
- relative viability ([4]; first compound 8 µM): 0.29

Cell Line: NCI-H2009
- relative viability ([1]; first compound 0.08 µM): 1.14
- relative viability ([1]; first compound 0.253 µM): 1.12
- relative viability ([1]; first compound 0.8 µM): 1.17
- relative viability ([1]; first compound 2.53 µM): 1.16
- relative viability ([1]; first compound 8 µM): 1.17
- relative viability ([2]; first compound 0.08 µM): 0.76
- relative viability ([2]; first compound 0.253 µM): 0.724
- relative viability ([2]; first compound 0.8 µM): 0.756
- relative viability ([2]; first compound 2.53 µM): 0.727
- relative viability ([2]; first compound 8 µM): 0.708
- relative viability ([3]; first compound 0.08 µM): 0.238
- relative viability ([3]; first compound 0.253 µM): 0.328
- relative viability ([3]; first compound 0.8 µM): 0.349
- relative viability ([3]; first compound 2.53 µM): 0.333
- relative viability ([3]; first compound 8 µM): 0.253
- relative viability ([4]; first compound 0.08 µM): 1.11
- relative viability ([4]; first compound 0.253 µM): 1.03
- relative viability ([4]; first compound 0.8 µM): 1.09
- relative viability ([4]; first compound 2.53 µM): 1.01
- relative viability ([4]; first compound 8 µM): 1

Cell Line: A-427
- relative viability ([1]; first compound 0.08 µM): 0.96
- relative viability ([1]; first compound 0.253 µM): 0.961
- relative viability ([1]; first compound 0.8 µM): 1.01
- relative viability ([1]; first compound 2.53 µM): 0.92
- relative viability ([1]; first compound 8 µM): 0.964
- relative viability ([2]; first compound 0.08 µM): 0.887
- relative viability ([2]; first compound 0.253 µM): 0.86
- relative viability ([2]; first compound 0.8 µM): 0.89
- relative viability ([2]; first compound 2.53 µM): 0.872
- relative viability ([2]; first compound 8 µM): 0.873
- relative viability ([3]; first compound 0.08 µM): 0.741
- relative viability ([3]; first compound 0.253 µM): 0.698
- relative viability ([3]; first compound 0.8 µM): 0.653
- relative viability ([3]; first compound 2.53 µM): 0.791
- relative viability ([3]; first compound 8 µM): 0.679
- relative viability ([4]; first compound 0.08 µM): 0.984
- relative viability ([4]; first compound 0.253 µM): 0.82
- relative viability ([4]; first compound 0.8 µM): 0.865
- relative viability ([4]; first compound 2.53 µM): 0.855
- relative viability ([4]; first compound 8 µM): 0.719

Cell Line: LU99A
- relative viability ([1]; first compound 0.08 µM): 0.827
- relative viability ([1]; first compound 0.253 µM): 0.581
- relative viability ([1]; first compound 0.8 µM): 0.879
- relative viability ([1]; first compound 2.53 µM): 0.781
- relative viability ([1]; first compound 8 µM): 0.882
- relative viability ([2]; first compound 0.08 µM): 0.517
- relative viability ([2]; first compound 0.253 µM): 0.515
- relative viability ([2]; first compound 0.8 µM): 0.495
- relative viability ([2]; first compound 2.53 µM): 0.416
- relative viability ([2]; first compound 8 µM): 0.469
- relative viability ([3]; first compound 0.08 µM): 0.578
- relative viability ([3]; first compound 0.253 µM): 0.646
- relative viability ([3]; first compound 0.8 µM): 0.611
- relative viability ([3]; first compound 2.53 µM): 0.401
- relative viability ([3]; first compound 8 µM): 0.373
- relative viability ([4]; first compound 0.08 µM): 0.565
- relative viability ([4]; first compound 0.253 µM): 0.551
- relative viability ([4]; first compound 0.8 µM): 0.61
- relative viability ([4]; first compound 2.53 µM): 0.513
- relative viability ([4]; first compound 8 µM): 0.411

Cell Line: HCC-366
- relative viability ([1]; first compound 0.08 µM): 0.969
- relative viability ([1]; first compound 0.253 µM): 1.03
- relative viability ([1]; first compound 0.8 µM): 1.07
- relative viability ([1]; first compound 2.53 µM): 1.07
- relative viability ([1]; first compound 8 µM): 0.901
- relative viability ([2]; first compound 0.08 µM): 0.471
- relative viability ([2]; first compound 0.253 µM): 0.369
- relative viability ([2]; first compound 0.8 µM): 0.458
- relative viability ([2]; first compound 2.53 µM): 0.299
- relative viability ([2]; first compound 8 µM): 0.473
- relative viability ([3]; first compound 0.08 µM): 0.71
- relative viability ([3]; first compound 0.253 µM): 0.8
- relative viability ([3]; first compound 0.8 µM): 0.592
- relative viability ([3]; first compound 2.53 µM): 0.502
- relative viability ([3]; first compound 8 µM): 0.564
- relative viability ([4]; first compound 0.08 µM): 0.484
- relative viability ([4]; first compound 0.253 µM): 0.503
- relative viability ([4]; first compound 0.8 µM): 0.513
- relative viability ([4]; first compound 2.53 µM): 0.47
- relative viability ([4]; first compound 8 µM): 0.558

Cell Line: CAL-12T
- relative viability ([1]; first compound 0.08 µM): 1.11
- relative viability ([1]; first compound 0.253 µM): 1.32
- relative viability ([1]; first compound 0.8 µM): 1.21
- relative viability ([1]; first compound 2.53 µM): 0.963
- relative viability ([1]; first compound 8 µM): 1.25
- relative viability ([2]; first compound 0.08 µM): 0.989
- relative viability ([2]; first compound 0.253 µM): 0.715
- relative viability ([2]; first compound 0.8 µM): 0.808
- relative viability ([2]; first compound 2.53 µM): 0.93
- relative viability ([2]; first compound 8 µM): 0.82
- relative viability ([3]; first compound 0.08 µM): 0.488
- relative viability ([3]; first compound 0.253 µM): 0.48
- relative viability ([3]; first compound 0.8 µM): 0.421
- relative viability ([3]; first compound 2.53 µM): 0.363
- relative viability ([3]; first compound 8 µM): 0.304
- relative viability ([4]; first compound 0.08 µM): 0.665
- relative viability ([4]; first compound 0.253 µM): 0.592
- relative viability ([4]; first compound 0.8 µM): 0.778
- relative viability ([4]; first compound 2.53 µM): 0.611
- relative viability ([4]; first compound 8 µM): 0.612
